Here are results for four substances from patent US8246943B2, “Prebiotic composition” (Conopco, Inc., priority 2009, dated 2012).

Several values for one entry are separate records, joined by “and”; a condition that tells them apart may be missing. Equal entries are not always repeated.

For assay [1], the system named is bifidobacteria. The note with it: background statement; cited from earlier work.
For assay [2], the system named is Bifidobacteria. Put plainly: 3 stage in vitro gut model, bacterial populations. The format is cell-based.
In assay [3] the test system is Eubacterium rectale and Clostridium coccoides. Put plainly: 3 stage in vitro gut model, bacterial populations. The format is cell-based.
Assay [4] deals with Clostridia (C. histolyticum and C. perfringens). In kind it is cell-based.
The test system of the next assay is Bacteroides. Put plainly: 3 stage in vitro gut model, bacterial populations. In kind it is cell-based.
Assay [5] is described as follows: prebiotic effect of black tea flavonoid components (test not described). The note with it: statement in the description, no test given.
Where [6] appears, read: SS1 (steady state without test substrate), vessel 1.
[7] abbreviates: SS1 (steady state without test substrate), vessel 2.
The mark [8] stands for this setting: SS1 (steady state without test substrate), vessel 3.
Where [9] appears, read: SS2 (steady state with substrate added daily), vessel 1.
Where [10] appears, read: SS2 (steady state with substrate added daily), vessel 2.
The mark [11] stands for this setting: SS2 (steady state with substrate added daily), vessel 3.

Consider Inulin, for which the bifidobacteria in humans entry with bifidobacteria [1] is “significantly increase bifidobacteria”. The Bifidobacteria population is reported as 7.62 Log 10 cells/ml of culture fluid with Bifidobacteria [2] (setting [6]); 7.52 Log 10 cells/ml of culture fluid in the assay on Bifidobacteria [2] (setting [7]); 7.49 Log 10 cells/ml of culture fluid with Bifidobacteria [2] (setting [8]); 8.45 Log 10 cells/ml of culture fluid with Bifidobacteria [2] (setting [9]); 8.26 Log 10 cells/ml of culture fluid with Bifidobacteria [2] (setting [10]); 8.15 Log 10 cells/ml of culture fluid with Bifidobacteria [2] (setting [11]). For the same substance, the “prebiotic effect in gut model (in words)” value in the assay on Bifidobacteria [2] (SS1 vs SS2, 1.33 g digested black tea solids per day (2.40 g before digestion), 5 g/day inulin) is listed as “achieved a similar effect”. For the same substance, the “Eubacterium rectale and Clostridium coccoides population” value is on record as 9.14 Log 10 cells/ml of culture fluid in assay [3] (setting [6]); 9.19 Log 10 cells/ml of culture fluid in assay [3] (setting [7]); 9.17 Log 10 cells/ml of culture fluid in assay [3] (setting [8]); 9.37 Log 10 cells/ml of culture fluid in assay [3] (setting [9]); 9.28 Log 10 cells/ml of culture fluid in assay [3] (setting [10]); 9.20 Log 10 cells/ml of culture fluid in assay [3] (setting [11]). Moreover, the “Clostridia (C. histolyticum and C. perfringens) population” value in assay [4] was 5.67 Log 10 cells/ml of culture fluid and 5.84 Log 10 cells/ml of culture fluid and 5.49 Log 10 cells/ml of culture fluid and 5.89 Log 10 cells/ml of culture fluid and 5.59 Log 10 cells/ml of culture fluid. Moreover, the Bacteroides population is reported as 7.23 Log 10 cells/ml of culture fluid with Bacteroides (setting [6]); 8.53 Log 10 cells/ml of culture fluid in the assay on Bacteroides (setting [7]); 8.35 Log 10 cells/ml of culture fluid in the assay on Bacteroides (setting [8]); 6.36 Log 10 cells/ml of culture fluid in the assay on Bacteroides (setting [9]); 8.81 Log 10 cells/ml of culture fluid in the assay on Bacteroides (setting [10]); 8.55 Log 10 cells/ml of culture fluid in the assay on Bacteroides (setting [11]).

Turning to catechins, the “prebiotic effect (in words)” value in assay [5] is “appear to reduce the prebiotic effect of thearubigins”.

As to fructo-oligosaccharides, in the assay with bifidobacteria [1], the bifidobacteria in humans result is reported as “significantly increase bifidobacteria”.

theaflavins: in assay [5], the “prebiotic effect (in words)” value was “little or no prebiotic effect”.
